Laboratory results reported in article doi:10.1101/2024.08.19.608619, “Discovery of potent SARS-CoV-2 nsp3 macrodomain inhibitors uncovers lack of translation to cellular antiviral response” (bioRxiv, 2024).
pIC50: −log10 of the molar value. Read-outs that look alike come from different tables or passages of the source.

Tests used:
[1] = biological target: T1, 5-HT3 (h) (Homo sapiens, UniProt P46098); test: In vitro CEREP profiling, 5-HT3 (h) (antagonist radioligand); assay type: binding; conditions: test compound concentration 10 uM
T1 construct: purchased Eurofins Cerep (SafetyScreen44), recognised from the panel format
T1 sequence (P46098 24-478): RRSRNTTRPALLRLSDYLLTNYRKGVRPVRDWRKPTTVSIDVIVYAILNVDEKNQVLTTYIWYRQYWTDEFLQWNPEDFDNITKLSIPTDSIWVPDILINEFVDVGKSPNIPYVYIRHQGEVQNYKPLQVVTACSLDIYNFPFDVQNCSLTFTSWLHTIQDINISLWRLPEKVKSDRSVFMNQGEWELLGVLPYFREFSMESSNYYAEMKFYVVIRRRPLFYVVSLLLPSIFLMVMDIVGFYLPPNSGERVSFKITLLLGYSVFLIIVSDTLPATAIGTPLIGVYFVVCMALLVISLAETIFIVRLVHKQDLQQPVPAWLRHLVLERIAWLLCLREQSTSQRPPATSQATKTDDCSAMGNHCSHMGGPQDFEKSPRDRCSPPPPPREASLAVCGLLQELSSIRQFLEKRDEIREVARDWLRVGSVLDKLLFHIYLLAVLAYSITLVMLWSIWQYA
Excerpt: Supplement media-1.zip/Safety_Panel_Profile.csv, table | column: perc_inhibition

[2] = tested on: CYP; test: CYP inhibition; assay type: in vitro ADME; conditions: In vitro CYP inhibition pooled; for potency: potency class in words
Excerpt: Supplement media-1.zip/CYP_Inhibition.csv, table | column: ic50; potency

[3] = biological target: T2, DRAK1(h) (Homo sapiens, UniProt Q9UEE5); test: biochemical; set-up: In vitro kinase panel profiling, per cent remaining kinase activity at 10 uM; conditions: atp_concentration=10, read-out: % of control remaining
T2 construct: gene STK17A
T2 sequence (Q9UEE5 1-414): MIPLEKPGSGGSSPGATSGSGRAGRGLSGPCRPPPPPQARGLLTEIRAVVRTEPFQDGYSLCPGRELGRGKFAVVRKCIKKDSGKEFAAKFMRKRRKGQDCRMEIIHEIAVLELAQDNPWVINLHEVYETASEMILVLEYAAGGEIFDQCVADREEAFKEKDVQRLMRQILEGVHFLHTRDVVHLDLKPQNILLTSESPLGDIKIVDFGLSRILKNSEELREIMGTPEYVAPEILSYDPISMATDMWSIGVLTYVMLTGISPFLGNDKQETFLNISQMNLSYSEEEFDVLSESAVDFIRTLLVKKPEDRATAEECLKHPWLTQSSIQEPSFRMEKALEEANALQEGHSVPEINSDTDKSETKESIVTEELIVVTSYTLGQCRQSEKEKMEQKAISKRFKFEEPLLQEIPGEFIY
Excerpt: (§1) We derisk potential for off-target activity by profiling the compound in a CEREP panel, a standard secondary pharmacology assessment, as well as a kinase panel to derisk a potential hinge-binding motif in our leads, and a PARP panel to derisk activity against human […]. Reassuringly, the compounds are selective, with the only off-targets being moderate human CHRM2 and KOR receptors activity associated with ASAP-0011198.

[4] = biological target: T3, PKCθ(h) (Homo sapiens, UniProt Q04759); test: biochemical; set-up: In vitro kinase panel profiling, per cent remaining kinase activity at 10 uM; conditions: atp_concentration=15, read-out: % of control remaining
T3 construct: gene PRKCQ
T3 sequence (Q04759 whole entry): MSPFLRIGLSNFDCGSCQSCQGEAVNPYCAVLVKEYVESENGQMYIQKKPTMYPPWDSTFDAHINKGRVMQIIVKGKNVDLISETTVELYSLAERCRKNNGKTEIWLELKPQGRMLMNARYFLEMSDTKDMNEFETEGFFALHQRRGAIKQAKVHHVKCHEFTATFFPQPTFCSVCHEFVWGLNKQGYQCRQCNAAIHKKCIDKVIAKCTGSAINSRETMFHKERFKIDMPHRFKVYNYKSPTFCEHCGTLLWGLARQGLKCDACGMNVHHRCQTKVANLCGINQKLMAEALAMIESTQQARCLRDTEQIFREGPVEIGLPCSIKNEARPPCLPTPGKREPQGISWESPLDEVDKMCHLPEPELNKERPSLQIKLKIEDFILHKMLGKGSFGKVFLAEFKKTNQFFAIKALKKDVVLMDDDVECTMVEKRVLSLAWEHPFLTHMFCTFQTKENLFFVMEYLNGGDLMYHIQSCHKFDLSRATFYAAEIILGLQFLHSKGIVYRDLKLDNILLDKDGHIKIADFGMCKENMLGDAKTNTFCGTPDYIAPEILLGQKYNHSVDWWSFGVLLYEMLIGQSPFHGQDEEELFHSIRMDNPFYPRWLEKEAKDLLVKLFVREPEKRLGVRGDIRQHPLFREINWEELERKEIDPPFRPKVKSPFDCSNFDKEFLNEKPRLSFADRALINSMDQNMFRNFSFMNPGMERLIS
Excerpt: as §1

[5] = biological target: T4, ASK1(h) (Homo sapiens, UniProt Q99683); test: biochemical; set-up: In vitro kinase panel profiling, per cent remaining kinase activity at 10 uM; conditions: atp_concentration=200, read-out: % of control remaining
T4 construct: gene MAP3K5
T4 sequence (Q99683 1-1374): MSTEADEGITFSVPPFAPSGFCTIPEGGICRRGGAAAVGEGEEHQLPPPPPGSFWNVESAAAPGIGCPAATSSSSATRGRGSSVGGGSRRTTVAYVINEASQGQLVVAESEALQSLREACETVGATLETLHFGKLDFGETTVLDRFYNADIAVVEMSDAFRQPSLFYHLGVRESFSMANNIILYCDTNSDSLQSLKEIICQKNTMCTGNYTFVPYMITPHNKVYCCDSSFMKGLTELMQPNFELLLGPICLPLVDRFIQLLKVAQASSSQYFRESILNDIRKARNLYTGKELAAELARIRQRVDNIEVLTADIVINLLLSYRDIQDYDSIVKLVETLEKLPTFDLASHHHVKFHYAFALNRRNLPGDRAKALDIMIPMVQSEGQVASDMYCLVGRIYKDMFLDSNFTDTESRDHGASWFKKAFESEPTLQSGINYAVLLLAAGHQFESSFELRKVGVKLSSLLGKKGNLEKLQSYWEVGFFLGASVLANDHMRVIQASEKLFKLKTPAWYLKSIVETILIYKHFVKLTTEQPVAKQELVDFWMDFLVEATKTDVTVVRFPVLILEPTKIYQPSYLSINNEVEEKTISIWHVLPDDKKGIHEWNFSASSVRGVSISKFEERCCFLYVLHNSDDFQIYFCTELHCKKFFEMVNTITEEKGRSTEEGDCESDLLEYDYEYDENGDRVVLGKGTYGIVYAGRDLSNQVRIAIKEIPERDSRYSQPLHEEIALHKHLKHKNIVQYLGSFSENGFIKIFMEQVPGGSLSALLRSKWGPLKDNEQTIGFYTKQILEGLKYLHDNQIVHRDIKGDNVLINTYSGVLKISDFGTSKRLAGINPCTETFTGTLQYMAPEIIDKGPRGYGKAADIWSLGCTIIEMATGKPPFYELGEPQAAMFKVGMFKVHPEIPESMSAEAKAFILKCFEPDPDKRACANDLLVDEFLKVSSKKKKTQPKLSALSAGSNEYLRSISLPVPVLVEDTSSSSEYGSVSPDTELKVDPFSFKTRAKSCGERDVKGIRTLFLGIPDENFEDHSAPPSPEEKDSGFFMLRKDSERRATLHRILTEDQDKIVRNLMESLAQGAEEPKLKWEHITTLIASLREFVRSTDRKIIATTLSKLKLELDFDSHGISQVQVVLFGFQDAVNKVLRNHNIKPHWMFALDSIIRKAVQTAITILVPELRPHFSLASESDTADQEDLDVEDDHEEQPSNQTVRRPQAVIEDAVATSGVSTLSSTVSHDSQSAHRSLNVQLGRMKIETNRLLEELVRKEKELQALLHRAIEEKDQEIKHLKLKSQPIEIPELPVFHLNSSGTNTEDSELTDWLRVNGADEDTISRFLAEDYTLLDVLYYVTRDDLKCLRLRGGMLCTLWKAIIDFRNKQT
Excerpt: as §1

| Structure (SMILES) | perc_inhibition (% inhibition of the binding of a ligand specific for each target) [1] [%] | pIC50 ([2]; isoform 1A2) | potency ([2]; isoform 1A2) | pIC50 ([2]; isoform 2C9) | potency ([2]; isoform 2C9) | pIC50 ([2]; isoform 2C19) | potency ([2]; isoform 2C19) | pIC50 ([2]; isoform 2D6) | potency ([2]; isoform 2D6) | pIC50 ([2]; isoform 3A4) | potency ([2]; isoform 3A4) | also measured |
| --- | --- | --- | --- | --- | --- | --- | --- | --- | --- | --- | --- | --- |
| Cn1ncc(-c2cc3c(N[C@@H](c4ccc5c(n4)OCCO5)C(C)(C)C)ncnc3[nH]2)c1C#N [ASAP-0011221] | 3 | < 4.30 | weak | 4.37 | weak | < 4.30 | weak | 4.69 | weak | 5.06 | moderate | remaining activity at 10 µM ([3]; batch_name=ASAP-0011221-002): 108%; remaining activity at 10 µM ([4]; batch_name=ASAP-0011221-002): 96%; remaining activity at 10 µM ([5]; batch_name=ASAP-0011221-002): 108% |
| CC(C)C(Nc1ncnc2[nH]c(C(=O)NC3CCN(C)C3)cc12)c1ccc2c(c1)S(=O)(=O)CCC2 (stereo not shown) [ASAP-0011198] | – | – | weak | – | weak | – | weak | – | weak | – | weak | inhibition at 10 µM ([1]; read-out: perc_inhibition, % inhibition of the binding of a ligand specific for each target): 2%; remaining activity at 10 µM ([3]; batch_name=ASAP-0011198-002): 105%; remaining activity at 10 µM ([4]; batch_name=ASAP-0011198-002): 102%; remaining activity at 10 µM ([5]; batch_name=ASAP-0011198-002): 105% |
| CC(C)[C@@H](Nc1ncnc2[nH]c(-c3cnn(C)c3C#N)cc12)c1ccc2c(n1)OCCO2 [ASAP-0010716] | 4 | 5.05 | moderate | 5.36 | moderate | 5.02 | moderate | 4.64 | weak | 5.68 | moderate | remaining activity at 10 µM ([3]; batch_name=ASAP-0010716-002): 108%; remaining activity at 10 µM ([4]; batch_name=ASAP-0010716-002): 111%; remaining activity at 10 µM ([5]; batch_name=ASAP-0010716-002): 108% |
